Oc1cc(O)c2cc(O)c(-c3cc(O)c(O)c(O)c3)[o+]c2c1.[Cl-]
solubility (mole fraction) (in acetone, 298.15 K): 5.5e-11
solubility (mole fraction) (in acetone, 303.15 K): 6.6e-11
solubility (mole fraction) (in acetone, 308.15 K): 7.1e-11
solubility (mole fraction) (in acetone, 313.15 K): 7.7e-11
solubility (mole fraction) (in acetone, 318.15 K): 8.7e-11
solubility (mole fraction) (in acetone, 323.15 K): 9.8e-11
solubility (mole fraction) (in acetone, 328.15 K): 1.06e-10
solubility (mole fraction) (in acetone, 333.15 K): 1.24e-10
solubility (mole fraction) (in acetone, 338.15 K): 1.35e-10
solubility (mole fraction) (in acetone, 343.15 K): 1.57e-10
solubility (mole fraction) (in ethanol, 298.15 K): 5.73e-08
solubility (mole fraction) (in ethanol, 303.15 K): 6.13e-08
solubility (mole fraction) (in ethanol, 308.15 K): 7.04e-08
solubility (mole fraction) (in ethanol, 313.15 K): 7.7e-08
solubility (mole fraction) (in ethanol, 318.15 K): 8.59e-08
solubility (mole fraction) (in ethanol, 323.15 K): 9.8e-08
solubility (mole fraction) (in ethanol, 328.15 K): 1.06e-07
solubility (mole fraction) (in ethanol, 333.15 K): 1.23e-07
solubility (mole fraction) (in ethanol, 338.15 K): 1.37e-07
solubility (mole fraction) (in ethanol, 343.15 K): 1.56e-07
solubility (mole fraction) (in methanol, 298.15 K): 5.86e-07
solubility (mole fraction) (in methanol, 303.15 K): 6.62e-07
solubility (mole fraction) (in methanol, 308.15 K): 7.71e-07
solubility (mole fraction) (in methanol, 313.15 K): 8.77e-07
solubility (mole fraction) (in methanol, 318.15 K): 9.71e-07
solubility (mole fraction) (in methanol, 323.15 K): 1.05e-06
solubility (mole fraction) (in methanol, 328.15 K): 1.26e-06
solubility (mole fraction) (in methanol, 333.15 K): 1.4e-06
solubility (mole fraction) (in methanol, 338.15 K): 1.53e-06
solubility (mole fraction) (in methanol, 343.15 K): 1.69e-06
solubility (mole fraction) (in water, 298.15 K): 5.35e-07
solubility (mole fraction) (in water, 303.15 K): 6.39e-07
solubility (mole fraction) (in water, 308.15 K): 6.98e-07
solubility (mole fraction) (in water, 313.15 K): 7.87e-07
solubility (mole fraction) (in water, 318.15 K): 8.69e-07
solubility (mole fraction) (in water, 323.15 K): 1.02e-06
solubility (mole fraction) (in water, 328.15 K): 1.11e-06
solubility (mole fraction) (in water, 333.15 K): 1.24e-06
solubility (mole fraction) (in water, 338.15 K): 1.48e-06
solubility (mole fraction) (in water, 343.15 K): 1.64e-06

Reference: BigSolDB 2.1
